Like-named read-outs stand apart in the source and are kept apart here.
Key:
[1] = test system: guinea pig experimental bronchial asthma models; assay: Experimental bronchial asthma model (ovalbumin inhalation): airway resistance and asthmatic death;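 also: female Std:Hartley guinea pigs sensitized by inhaling nebulized ovalbumin once daily for 8 consecutive days, 8 to 11 animals per group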
Experimental: Guinea pigs (female, Std:Hartley, 3 weeks old, 200 to 250 g) were individually housed in a plastic chamber (width, 200 mm; depth, 300 mm; height, 167 mm). Aqueous ovalbumin (10 mg/mL) was administered to the guinea pigs once a day for sensitization by 10 min. inhalation with a nebulizer (5B, Nippon Shoji K.K.: flow rate, 6 L/min.) at a dose of 10 mg/mL during 8 cosecutive days. On Day 7 after the final sensitization, the guinea pigs were housed in a plastic chamber and inhaled using a nebulizer with a solution of ovalbumin (10 mg/mL) in physiological saline for 1 min. for elicitation (Matsumoto, T., et al., The Journal of Pharmacology and Experimental Therapeutics, 269: 1236-1244, 1994). The number of animals employed in the experiment was set to the extent there are at least 6 as individuals escaping asthmatic death. A solution of a test compound (Compound No. 130, 15 mg/kg) in water for injection was administered subcutaneously twice, i.e., 24 hours and 2 hours prior to elicitation. Similarly, the solvent alone was also administered to a negative control group. A suspension of prednisolone (10 mg/kg) in 0.5% aqueous methyl cellulose was administered orally twice, i.e., 24 hours and 2 hours prior to elicitation. Similarly, the solvent alone was also administered to another control group.
The evaluation for efficacies was conducted in terms of airway resistance. For this purpose, an apparatus dedicated to the measurement of airway resistance (K.K. Medical Agent) was employed. Measurement includes setting a guinea pig in a test chamber under a not-anesthetized condition, applying sinusoidal pressure waves of 30 Hz components to a part below the neck of the animal from the back side of the chamber, measuring respiratory waves of 30 Hz components leaking through the mouth (volume of 30 Hz air flow passing through the respiratory tract) in front of the neck, and calculating airway resistance mechanically. Measurement was carried out immediately prior to the first drug treatment (24 hours before elicitation), just prior to elicitation, 10 minutes, 1, 2, 4, 6, and 8 hours post-elicitation.
It was visually observed by a person carrying out said test in terms, of the appearance of cyanosis or suffocative death (asthmatic death) due to respiratory obstruction.
Guinea pigs were sensitized with ovalbumin and asthma was induced on Day 7 after final sensitization in the same manner as in Example 20. The number of animals employed in the experiment was set to the extent there are at least 6 as individuals escaping asthmatic death (8 to 11 animals/group). In the same manner as in Example 20, the animals were measured for airway resistance mechanically and each percent change (%) in airway resistance was calculated (each value just prior to elicitation was set as 100%). Each percent amelioration in airway resistance was calculated from the percent changes in airway resistance according to the following formula: Amelioration in Airway Resistance (%) = 1 -[((Percent Change in Airway Resistance after Drug-Administration) - (Value just prior to Challenge (100)))/((Percent Change in Airway Resistance after Solvent-Administration) - (Value just prior to Challenge (100)))]× 100 [formula]

[2] = test system: peripheral blood mononuclear cells (PBMC); assay: Antibody (IgG, IgM) production by SAC/IL-2-stimulated peripheral blood mononuclear cells; format: cell-based; details: Homo sapiens, 144 h, 6 days incubation; for inhibition at 0.1 µM: final concentration 0.1 µM; for inhibition at 1 µM: final concentration 1 µM; for inhibition at 10 µM: final concentration 10 µM
Experimental: Heparinized peripheral blood derived from a healthy person was diluted 2-fold with phosphate buffered saline (PBS) and applied to density-gradient centrifugation using Ficoll-Paque (Pharmacia Biotech) to give peripheral blood mononuclear cells (PBMC). After isolation, PBMC was rinsed with PBS, and suspended in RPMI-1640 medium (K.K. Nikken Seibutsu Igaku Kenkyujo) containing 10% heat-inactivated fetal calf serum (1 × 10^6 cells/mL), followed by addition of 0.05% Staphylococcus aureus Cowan-I (SAC, CALBIOCHEM) and 10 units/mL interleukin-2 (IL-2, Genzyme) for stimulation, as well as by simultaneous addition of Compound No. 130 (final concentration: 0.1, 1 and 10 µM). The mixtures were incubated on a 96-well microtest plate at 37°C for 6 days in an atmosphere of 95% air and 5% CO2. After incubation, supernatants were collected and quantitatively measured for IgG and IgM levels by an enzyme immunoassay (a sandwich immunoassay method using two antibodies).
IgG assay: A preparation containing 40 µg/mL anti-human IgG antibody (F(ab')2, Cappel) in 50 mM sodium carbonate-sodium bicarbonate buffer (pH 9.6) was added to each well of a 96-well microtest plate (Nunc) at a rate of 100 µL/well. The plates were allowed to stand overnight at 4°C, and then rinsed 3 times with PBS containing 0.05% Tween 20. A 4-fold dilution of BlockAce (Snow Brand Milk Products Co., Ltd.) in PBS was added to the 96-well microtest plates (300 µL/well) which were then allowed to stand overnight at 4°C, followed by rinsing similarly. Next, a culture supernatant was serially diluted with a 4-fold dilution of BlockAce in PBS and a series of dilutions were added at a rate of 100 µL/well to the 96-well microtest plates which were then allowed to stand at 25°C for 1 hour, followed by rinsing similarly. Thereafter, a 2500-fold dilution of peroxidase-labeled mouse anti-human IgG antibody (Zymed) was added at a rate of 100 µL/well to the 96-well microtest plates which were then allowed to stand at 25°C for 1 hour, followed by rinsing similarly. A coloring kit for peroxidase (Sumitomo Bakelite) was added at a rate of 100 µL/well to each well which was subjected to an enzyme reaction for 15 to 30 minutes at room temperature, followed by addition of 1 N hydrochloric acid at a rate of 100 µL/well. The resultant colored product was measured for an optical density (OD) at 450 nm for a test wavelength and at 650 nm for a reference wavelength in a microplate reader. IgG levels are calculated using a calibration curve of a standard IgG.
IgM assay: The procedures for the IgG assay as aforementioned were repeated except that the anti-human IgG antibody (F(ab')2) was replaced to anti-human IgM antibody (F(ab')2, Cappel) and the peroxidase-labeled mouse anti-human IgG antibody also to peroxidase-labeled mouse anti-human IgM antibody (Zymed; 2,000-fold dilution). IgM levels are obtained in the same manner as for the IgG assay.

[3] = test system: allergic inflammation models (air pouch models); assay: Allergic inflammation model (air pouch model): leukocyte infiltration; format: in vivo, rats; details: 10 mg/kg or 30 mg/kg, into the air pouch at the second challenge or systemically 30 minutes prior; exudate 8 hours after second challenge; dexamethasone 0.1 mg/kg as comparison
Experimental: Compound No. 130 was dissolved in physiological saline to make the final concentration 2.5 mg/mL (equal to 10 mg/kg) or 7.5 mg/mL (equal to 30 mg/kg) and administered into an air pouch of animals or intraperitoneally at a dose of 4 mL/kg. Dexamethasone was also dissolved in physiological saline to make the final concentration 25 µg/mL (equal to 0.1 mg/kg) and administered into an air pouch of animals at a dose of 4 mL/kg. Administration into such an air pouch was conducted simultaneously with the second challenge while the intraperitoneal administration was 30 minutes prior to the second challenge. Acetylated bovine serum albumin diazo-coupled with arsanilic acid (ABA-AcBSA) was prepared according to the Ouchi et al. and Tabachnick et al. methods as disclosed in Ouchi et al., "Seibutsu Yakukagaku Jikken Koza, Ensho To Allergy (Inflammation and Allergy) I-2", pp.194 to 206, Hirokawa Publishing Co., Japan and Tabachnick et al., The Journal of Biological Chemistry, 234: 1726- 1730, 1959, and mixed with a Freund's complete adjuvant (Difco) at an equal ratio. The mixture was treated using a connection-type glass syringe to form an emulsion which was used as a sensitizing solution. […] The retrieved exudates were measured by a dye-exclusion method using a haematocytometer and the number of exudated leukocytes were counted.

[4] = asthmatic death due to cyanosis within several minutes after elicitation, Compound No. 130 15 mg/kg s.c., prednisolone 10 mg/kg orally, 24 and 2 hours prior to elicitation
[5] = read-out: IgG production of PBMC, percent inhibition
[6] = read-out: IgM production of PBMC, percent inhibition

CNC(=O)[C@H](Cc1ccc(NC(=N)N)cc1)NC(=O)[C@H](CC(C)C)C(CCCc1ccccc1)C(=O)NO (single isomer, unassigned) [Compound No. 130, N-[4-(N-Hydroxyamino)-2(R)-isobutyl-3(R or S)-(3-phenyltrimethylene)succinyl)-L-4'-guanidophenylalanine-N-methylamide 1 acetate]
airway resistance (FIG. 12) ([1]; 15 mg/kg s.c. 24 hours and 2 hours prior to elicitation, IAR 1 hour, LAR 6 hours post-elicitation): significant reduction of the increased airway resistance
% Mortality [1, 4]: 0.0%
(Dead Animals)/(Tested Animals) [1, 4]: 0/10
inhibition at 0.1 µM [2, 5]: 84.5%
inhibition at 0.1 µM [2, 6]: 32.9%
inhibition at 1 µM [2, 5]: 96.1%
inhibition at 1 µM [2, 6]: 68.1%
inhibition at 10 µM [2, 5]: 96%
inhibition at 10 µM [2, 6]: 63.4%
infiltration of leukocytes into an air pouch (FIG. 14) [3]: significantly inhibited

Source: patent EP1101492A1, “NOVEL REMEDIES FOR ALLERGIC DISEASES” (FUJI YAKUHIN KOGYO KABUSHIKI KAISHA, priority 1998, dated 2000)
